Results taken from article PMC8222254, “Self-assembly of an anion receptor with metal-dependent kinase inhibition and potent in vitro anti-cancer properties” (Nature Communications, 2021).
Values joined by “and” are separate entries in the source; they are usually repeats but may differ in a detail not shown here. Identical values can stand only once. Like-named read-outs stand apart in the source and are kept apart here.

Tests used:
Assay in all cases: Chemosensitivity, 96 h continuous exposure, MTT assay
Assay type in all cases: cell-based, human
A549 = test system: A549
Procedure, shortened: (§1)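 Growth inhibition is measured by MTT after cells are dosed for 96 h without washout. The 50% growth-reduction concentration is then interpolated from the curves.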

ARPE-19 non-cancer cells = test system: ARPE-19 non-cancer cells
Procedure, shortened: as §1

BxPC3 = test system: BxPC3
Procedure, shortened: as §1

DLD-1 = test system: DLD-1
Procedure, shortened: as §1

HCT116 p53+/+ = test system: HCT116 p53+/+
Procedure, shortened: as §1

MCF10A non-cancer cells = test system: MCF10A non-cancer cells
Procedure, shortened: as §1

MiaPaCa2 = test system: MiaPaCa2
Procedure, shortened: as §1

## O=P(O)(O)Oc1ccccc1.[Zn+2].[Zn+2].[Zn+2].c1ccc(-c2csc(NCCN(CCNc3nc(-c4ccccn4)cs3)CCNc3nc(-c4ccccn4)cs3)n2)nc1.c1ccc(-c2csc(NCCN(CCNc3nc(-c4ccccn4)cs3)CCNc3nc(-c4ccccn4)cs3)n2)nc1 [[L2Zn3(O3POPh)]4+]
A549; A549, mean of replicates, read-out: Mean IC50
  IC50: 0.739 µM
A549; A549, read-out: Mean IC50 values
  IC50: 0.739 µM
A549; A549, single replicate, read-out: IC50 values for each replicate
  IC50: 0.651 µM and 0.791 µM and 0.774 µM
A549; IC50 ARPE-19 / IC50 A549
  Selectivity index (ARPE19): 311.57
A549; IC50 MCF10A / IC50 A549
  Selectivity index (MCF10A): 70.84
A549; ratio of IC50, A549
  Relative potency (+ anion to no anion), Ratio + anion:no anion: 1.83
A549; ratio of SI (ARPE-19), A549
  Selectivity indices relative to ARPE-19, Ratio + anion:no anion: 0.798
A549; ratio of SI (MCF 10A), A549
  Selectivity indices relative to MCF10A, Ratio + anion:no anion: 0.177
ARPE-19 non-cancer cells; ARPE-19, mean of replicates, read-out: Mean IC50
  IC50: 230 µM
ARPE-19 non-cancer cells; ARPE-19, single replicate, read-out: IC50 values for each replicate
  IC50: 273 µM and 210 µM and 208 µM
ARPE-19 non-cancer cells; ARPE-19 non-cancer, read-out: Mean IC50 values
  IC50: 230 µM
ARPE-19 non-cancer cells; ratio of IC50, ARPE-19
  Relative potency (+ anion to no anion), Ratio + anion:no anion: 1.46
BxPC3; BXPC3, mean of replicates, read-out: Mean IC50
  IC50: 1.14 µM
BxPC3; BXPC3, read-out: Mean IC50 values
  IC50: 1.14 µM
BxPC3; IC50 ARPE-19 / IC50 BXPC3
  Selectivity index (ARPE19): 202.86
BxPC3; IC50 MCF10A / IC50 BXPC3
  Selectivity index (MCF10A): 46.13
BxPC3; ratio of IC50, BXPC3
  Relative potency (+ anion to no anion), Ratio + anion:no anion: 3.55
BxPC3; ratio of SI (ARPE-19), BXPC3
  Selectivity indices relative to ARPE-19, Ratio + anion:no anion: 0.413
BxPC3; ratio of SI (MCF 10A), BXPC3
  Selectivity indices relative to MCF10A, Ratio + anion:no anion: 0.091
DLD-1; DLD-1, mean of replicates, read-out: Mean IC50
  IC50: 0.23 µM
DLD-1; DLD-1, read-out: Mean IC50 values
  IC50: 0.23 µM
DLD-1; IC50 ARPE-19 / IC50 DLD-1
  Selectivity index (ARPE19): 1001.09
DLD-1; IC50 MCF10A / IC50 DLD-1
  Selectivity index (MCF10A): 227.62
DLD-1; ratio of IC50, DLD-1
  Relative potency (+ anion to no anion), Ratio + anion:no anion: 1.35
DLD-1; ratio of SI (ARPE-19), DLD-1
  Selectivity indices relative to ARPE-19, Ratio + anion:no anion: 1.082
DLD-1; ratio of SI (MCF 10A), DLD-1
  Selectivity indices relative to MCF10A, Ratio + anion:no anion: 0.239
HCT116 p53+/+; HCT116 p53+/+, mean of replicates, read-out: Mean IC50
  IC50: 0.064 µM
HCT116 p53+/+; HCT116 p53+/+, read-out: Mean IC50 values
  IC50: 0.064 µM
HCT116 p53+/+; HCT116 p53+/+, single replicate, read-out: IC50 values for each replicate
  IC50: 0.058 µM and 0.064 µM and 0.07 µM
HCT116 p53+/+; IC50 ARPE-19 / IC50 HCT116 p53+/+
  Selectivity index (ARPE19): 3597.66
HCT116 p53+/+; IC50 MCF10A / IC50 HCT116 p53+/+
  Selectivity index (MCF10A): 818.02
HCT116 p53+/+; ratio of IC50, HCT116 p53+/+
  Relative potency (+ anion to no anion), Ratio + anion:no anion: 0.14
HCT116 p53+/+; ratio of SI (ARPE-19), HCT116 p53+/+
  Selectivity indices relative to ARPE-19, Ratio + anion:no anion: 10.661
HCT116 p53+/+; ratio of SI (MCF 10A), HCT116 p53+/+
  Selectivity indices relative to MCF10A, Ratio + anion:no anion: 2.358
MCF10A non-cancer cells; MCF10A non-cancer, read-out: Mean IC50 values
  IC50: 52.4 µM
MCF10A non-cancer cells; MCF10A, mean of replicates, read-out: Mean IC50
  IC50: 52.4 µM
MCF10A non-cancer cells; MCF10A, single replicate, read-out: IC50 values for each replicate
  IC50: 37.9 µM and 56.1 µM and 63.1 µM
MCF10A non-cancer cells; ratio of IC50, MCF10A
  Relative potency (+ anion to no anion), Ratio + anion:no anion: 0.32
MiaPaCa2; IC50 ARPE-19 / IC50 MiaPaCa2
  Selectivity index (ARPE19): 4.94
MiaPaCa2; IC50 MCF10A / IC50 MiaPaCa2
  Selectivity index (MCF10A): 1.12
MiaPaCa2; MiaPaCa2, mean of replicates, read-out: Mean IC50
  IC50: 46.6 µM
MiaPaCa2; MiaPaCa2, read-out: Mean IC50 values
  IC50: 46.6 µM
MiaPaCa2; MiaPaCa2, single replicate, read-out: IC50 values for each replicate
  IC50: 45.4 µM and 47.8 µM and 46.8 µM
MiaPaCa2; ratio of IC50, MiaPaCa2
  Relative potency (+ anion to no anion), Ratio + anion:no anion: 0.79
MiaPaCa2; ratio of SI (ARPE-19), MiaPaCa2
  Selectivity indices relative to ARPE-19, Ratio + anion:no anion: 1.858
MiaPaCa2; ratio of SI (MCF 10A), MiaPaCa2
  Selectivity indices relative to MCF10A, Ratio + anion:no anion: 0.410
